Assay [1] concerns the target Multidrug efflux pump subunit AcrB (Escherichia coli (strain K12)) (UniProt P31224). In words: Binding affinity to Escherichia coli K-12 MC1061 acrB assessed as susceptibility to compound efflux at 0.01 to 1 ug/ml after 16 hrs by plate reader assay.
Assay [2] concerns the target Small ribosomal subunit protein bS18 (Escherichia coli (strain K12)) (UniProt P0A7T7). As to the kind of experiment: Inhibition of IPTG-stimulated Escherichia coli K-12 rpSR at 4 fold MIC by microarray analysis.
Assay [3] deals with D-alanine--D-alanine ligase B (Escherichia coli K-12) (UniProt P07862). In words: Inhibition of IPTG-stimulated Escherichia coli K-12 ddlB at 16 fold MIC by microarray analysis.
Assay [4] addresses T1, Iron-sulfur cluster insertion protein ErpA (Escherichia coli (strain K12)) (UniProt P0ACC3).
T1 sequence (whole entry): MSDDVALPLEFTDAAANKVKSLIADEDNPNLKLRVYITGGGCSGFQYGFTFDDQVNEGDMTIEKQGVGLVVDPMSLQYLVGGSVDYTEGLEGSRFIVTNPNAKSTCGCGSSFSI
As to the kind of experiment: Inhibition of IPTG-stimulated Escherichia coli K-12 yadR at 8 fold MIC by microarray analysis.

The target of assay [5] is UDP-3-O-acyl-N-acetylglucosamine deacetylase (Escherichia coli K-12) (UniProt P0A725). In words: Inhibition of IPTG-stimulated Escherichia coli K-12 envA at 4 fold MIC by microarray analysis.
In assay [6] the target is D-alanine--D-alanine ligase B (Escherichia coli K-12) (UniProt P07862). As to the kind of experiment: Inhibition of IPTG-stimulated Escherichia coli K-12 ddlB at 4 fold MIC by microarray analysis.
The target in assay [7] is T1, Iron-sulfur cluster insertion protein ErpA (Escherichia coli (strain K12)). In words: Inhibition of IPTG-stimulated Escherichia coli K-12 yadR at 16 fold MIC by microarray analysis.
The target of assay [8] is T2, Cell division protein FtsA (Escherichia coli (strain K12)) (UniProt P0ABH0).
T2 sequence (whole entry): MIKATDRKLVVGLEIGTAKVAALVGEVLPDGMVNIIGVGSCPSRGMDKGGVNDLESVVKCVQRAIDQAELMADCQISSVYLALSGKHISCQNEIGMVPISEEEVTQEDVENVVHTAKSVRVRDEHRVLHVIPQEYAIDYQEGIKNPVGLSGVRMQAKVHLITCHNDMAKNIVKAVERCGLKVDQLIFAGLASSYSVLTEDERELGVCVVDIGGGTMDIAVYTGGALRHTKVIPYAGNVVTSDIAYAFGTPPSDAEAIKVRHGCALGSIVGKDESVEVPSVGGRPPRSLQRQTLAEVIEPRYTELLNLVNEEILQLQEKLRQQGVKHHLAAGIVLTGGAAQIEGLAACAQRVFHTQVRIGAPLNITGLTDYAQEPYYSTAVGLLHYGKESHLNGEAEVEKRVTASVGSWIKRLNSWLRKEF
In words: Inhibition of IPTG-stimulated Escherichia coli K-12 ftsA at 4 fold MIC by microarray analysis.

Assay [9] concerns the target T2, Cell division protein FtsA (Escherichia coli (strain K12)). As to the kind of experiment: Inhibition of IPTG-stimulated Escherichia coli K-12 ftsA at 8 fold MIC by microarray analysis.
Assay [10] deals with T1, Iron-sulfur cluster insertion protein ErpA (Escherichia coli (strain K12)). In words: Inhibition of IPTG-stimulated Escherichia coli K-12 yadR at 4 fold MIC by microarray analysis.
The target in assay [11] is T3, Outer membrane protein TolC (Escherichia coli (strain K12)) (UniProt P02930).
T3 sequence (whole entry): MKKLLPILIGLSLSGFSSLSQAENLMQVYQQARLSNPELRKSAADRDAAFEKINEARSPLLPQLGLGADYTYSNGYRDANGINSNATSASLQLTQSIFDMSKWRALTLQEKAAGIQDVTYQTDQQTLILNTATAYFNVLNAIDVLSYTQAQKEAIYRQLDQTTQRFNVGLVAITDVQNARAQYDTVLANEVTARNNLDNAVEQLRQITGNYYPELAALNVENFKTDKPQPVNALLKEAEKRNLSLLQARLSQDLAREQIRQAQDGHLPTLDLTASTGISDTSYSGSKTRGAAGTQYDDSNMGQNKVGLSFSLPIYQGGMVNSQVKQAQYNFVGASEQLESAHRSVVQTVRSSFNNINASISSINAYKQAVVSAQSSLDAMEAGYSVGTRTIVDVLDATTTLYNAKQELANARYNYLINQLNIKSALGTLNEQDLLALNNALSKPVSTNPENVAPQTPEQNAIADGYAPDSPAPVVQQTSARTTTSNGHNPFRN
In words: Inhibition of IPTG-stimulated Escherichia coli K-12 tolC at 4 fold MIC by microarray analysis.

Assay [12] concerns the target T2, Cell division protein FtsA (Escherichia coli (strain K12)). In words: Inhibition of IPTG-stimulated Escherichia coli K-12 ftsA at 16 fold MIC by microarray analysis.
For assay [13], the target named is D-alanine--D-alanine ligase B (Escherichia coli K-12) (UniProt P07862). As to the kind of experiment: Inhibition of IPTG-stimulated Escherichia coli K-12 ddlB at 8 fold MIC by microarray analysis.
Assay [14] concerns the target tRNA threonylcarbamoyladenosine biosynthesis protein TsaE (Escherichia coli (strain K12)) (UniProt P0AF67). In words: Inhibition of IPTG-stimulated Escherichia coli K-12 yjeE at 4 fold MIC by microarray analysis.
The target in assay [15] is Putative reactive intermediate deaminase TdcF (Escherichia coli (strain K12)) (UniProt P0AGL2). As to the kind of experiment: Inhibition of IPTG-stimulated Escherichia coli K-12 yhaR at 4 fold MIC by microarray analysis.
Assay [16] deals with Multifunctional CCA protein (Escherichia coli (strain K12)) (UniProt P06961). In words: Inhibition of IPTG-stimulated Escherichia coli K-12 cca at 4 fold MIC by microarray analysis.
Assay [17] has as its target T4, Uncharacterized protein YdiL (Escherichia coli (strain K12)) (UniProt P76196).
T4 sequence (whole entry): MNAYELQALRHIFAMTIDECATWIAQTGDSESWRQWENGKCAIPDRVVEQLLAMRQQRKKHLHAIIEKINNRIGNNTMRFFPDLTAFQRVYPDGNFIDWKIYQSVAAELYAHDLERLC
In words: Inhibition of IPTG-stimulated Escherichia coli K-12 ydiL at 4 fold MIC by microarray analysis.

Assay [18] addresses 1-acyl-sn-glycerol-3-phosphate acyltransferase (Escherichia coli (strain K12)) (UniProt P26647). As to the kind of experiment: Inhibition of IPTG-stimulated Escherichia coli K-12 plsC at 4 fold MIC by microarray analysis.
The target of assay [19] is 3-oxoacyl-[acyl-carrier-protein] synthase 1 (Escherichia coli K-12) (UniProt P0A953). In words: Inhibition of IPTG-stimulated Escherichia coli K-12 fabB at 8 fold MIC by microarray analysis.
The target in assay [20] is Acyl carrier protein (Escherichia coli (strain K12)) (UniProt P0A6A8). In words: Inhibition of IPTG-stimulated Escherichia coli K-12 acpP at 8 fold MIC by microarray analysis.
Assay [21] addresses Octaprenyl diphosphate synthase (Escherichia coli (strain K12)) (UniProt P0AD57). As to the kind of experiment: Inhibition of IPTG-stimulated Escherichia coli K-12 ispB at 4 fold MIC by microarray analysis.
Assay [22] addresses Farnesyl diphosphate synthase (Escherichia coli K-12) (UniProt P22939). As to the kind of experiment: Inhibition of IPTG-stimulated Escherichia coli K-12 ispA at 4 fold MIC by microarray analysis.
Assay [23] deals with Large ribosomal subunit protein bL28 (Escherichia coli (strain K12)) (UniProt P0A7M2). In words: Inhibition of IPTG-stimulated Escherichia coli K-12 rpmB at 4 fold MIC by microarray analysis.
The target in assay [24] is Acyl carrier protein (Escherichia coli (strain K12)) (UniProt P0A6A8). As to the kind of experiment: Inhibition of IPTG-stimulated Escherichia coli K-12 acpP at 4 fold MIC by microarray analysis.
The target in assay [25] is UDP-N-acetylglucosamine 1-carboxyvinyltransferase (Escherichia coli K-12) (UniProt P0A749). In words: Inhibition of IPTG-stimulated Escherichia coli K-12 murA at 4 fold MIC by microarray analysis.
Assay [26] deals with UDP-N-acetylmuramoyl-L-alanyl-D-glutamate--2,6-diaminopimelate ligase (Escherichia coli (strain K12)) (UniProt P22188). In words: Inhibition of IPTG-stimulated Escherichia coli K-12 murE at 4 fold MIC by microarray analysis.
The target in assay [27] is 3-oxoacyl-[acyl-carrier-protein] synthase 1 (Escherichia coli K-12) (UniProt P0A953). In words: Inhibition of IPTG-stimulated Escherichia coli K-12 fabB at 4 fold MIC by microarray analysis.
The target in assay [28] is T5, Dihydrofolate synthase/folylpolyglutamate synthase (Escherichia coli (strain K12)) (UniProt P08192).
T5 sequence (whole entry): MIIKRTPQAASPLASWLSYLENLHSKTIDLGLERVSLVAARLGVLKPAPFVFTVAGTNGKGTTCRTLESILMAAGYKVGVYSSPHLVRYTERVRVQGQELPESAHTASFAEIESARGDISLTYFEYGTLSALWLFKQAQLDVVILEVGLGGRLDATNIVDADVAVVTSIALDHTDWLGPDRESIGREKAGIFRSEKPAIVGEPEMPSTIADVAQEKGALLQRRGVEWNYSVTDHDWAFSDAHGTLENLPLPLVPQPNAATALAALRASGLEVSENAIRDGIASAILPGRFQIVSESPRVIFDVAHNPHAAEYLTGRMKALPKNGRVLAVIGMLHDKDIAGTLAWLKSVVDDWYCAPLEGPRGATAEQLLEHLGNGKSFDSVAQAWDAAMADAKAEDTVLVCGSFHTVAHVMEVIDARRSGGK
As to the kind of experiment: Inhibition of IPTG-stimulated Escherichia coli K-12 folC at 16 fold MIC by microarray analysis.

Assay [29] has as its target Fructose-bisphosphate aldolase class 2 (Escherichia coli K-12) (UniProt P0AB71). As to the kind of experiment: Inhibition of IPTG-stimulated Escherichia coli K-12 fbaA at 4 fold MIC by microarray analysis.
The target in assay [30] is Guanylate kinase (Escherichia coli (strain K12)) (UniProt P60546). As to the kind of experiment: Inhibition of IPTG-stimulated Escherichia coli K-12 gmk at 4 fold MIC by microarray analysis.
In assay [31] the target is CDP-diacylglycerol--glycerol-3-phosphate 3-phosphatidyltransferase (Escherichia coli (strain K12)) (UniProt P0ABF8). In words: Inhibition of IPTG-stimulated Escherichia coli K-12 pgsA at 4 fold MIC by microarray analysis.
Assay [32] concerns the target Octaprenyl diphosphate synthase (Escherichia coli (strain K12)) (UniProt P0AD57). As to the kind of experiment: Inhibition of IPTG-stimulated Escherichia coli K-12 ispB at 8 fold MIC by microarray analysis.
For assay [33], the target named is Uncharacterized protein YdfB (Escherichia coli (strain K12)) (UniProt P29009). In words: Inhibition of IPTG-stimulated Escherichia coli K-12 ydfB at 4 fold MIC by microarray analysis.
The target of assay [34] is T5, Dihydrofolate synthase/folylpolyglutamate synthase (Escherichia coli (strain K12)). As to the kind of experiment: Inhibition of IPTG-stimulated Escherichia coli K-12 folC at 4 fold MIC by microarray analysis.
Assay [35] has as its target T3, Outer membrane protein TolC (Escherichia coli (strain K12)). As to the kind of experiment: Inhibition of IPTG-stimulated Escherichia coli K-12 tolC at 16 fold MIC by microarray analysis.

The source made the active and inactive calls. The rule behind the calls is not given here.

Acyl carrier protein (Escherichia coli (strain K12)), sequence (P0A6A8 whole entry): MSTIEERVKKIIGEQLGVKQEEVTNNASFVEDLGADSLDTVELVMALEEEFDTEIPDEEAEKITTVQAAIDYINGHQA
Octaprenyl diphosphate synthase (Escherichia coli (strain K12)), sequence (P0AD57 whole entry): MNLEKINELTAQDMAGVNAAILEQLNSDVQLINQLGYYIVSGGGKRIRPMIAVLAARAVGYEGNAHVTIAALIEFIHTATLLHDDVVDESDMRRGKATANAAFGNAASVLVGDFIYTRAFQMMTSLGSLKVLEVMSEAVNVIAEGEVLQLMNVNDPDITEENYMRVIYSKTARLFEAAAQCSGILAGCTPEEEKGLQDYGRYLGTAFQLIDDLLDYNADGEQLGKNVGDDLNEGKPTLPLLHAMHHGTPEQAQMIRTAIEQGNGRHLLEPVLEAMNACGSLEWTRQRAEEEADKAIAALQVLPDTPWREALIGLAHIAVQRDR
3-oxoacyl-[acyl-carrier-protein] synthase 1 (Escherichia coli K-12), sequence (P0A953 whole entry): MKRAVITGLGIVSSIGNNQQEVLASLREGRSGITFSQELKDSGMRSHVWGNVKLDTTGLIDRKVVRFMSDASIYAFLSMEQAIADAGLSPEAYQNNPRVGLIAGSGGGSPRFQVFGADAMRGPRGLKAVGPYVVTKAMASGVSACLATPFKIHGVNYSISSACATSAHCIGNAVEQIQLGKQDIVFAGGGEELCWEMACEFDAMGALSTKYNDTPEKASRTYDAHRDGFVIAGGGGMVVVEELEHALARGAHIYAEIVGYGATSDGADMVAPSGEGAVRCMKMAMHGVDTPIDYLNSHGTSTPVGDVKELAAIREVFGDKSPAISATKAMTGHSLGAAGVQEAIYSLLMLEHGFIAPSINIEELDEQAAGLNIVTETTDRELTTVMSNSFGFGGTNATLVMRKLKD
1-acyl-sn-glycerol-3-phosphate acyltransferase (Escherichia coli (strain K12)), sequence (P26647 whole entry): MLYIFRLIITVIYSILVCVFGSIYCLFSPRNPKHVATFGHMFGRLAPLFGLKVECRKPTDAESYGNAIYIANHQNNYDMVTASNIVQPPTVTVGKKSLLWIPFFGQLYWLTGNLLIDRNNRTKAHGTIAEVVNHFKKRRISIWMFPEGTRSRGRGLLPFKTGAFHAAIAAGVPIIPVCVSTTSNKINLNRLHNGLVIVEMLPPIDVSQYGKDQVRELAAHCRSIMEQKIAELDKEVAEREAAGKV
Fructose-bisphosphate aldolase class 2 (Escherichia coli K-12), sequence (P0AB71 whole entry): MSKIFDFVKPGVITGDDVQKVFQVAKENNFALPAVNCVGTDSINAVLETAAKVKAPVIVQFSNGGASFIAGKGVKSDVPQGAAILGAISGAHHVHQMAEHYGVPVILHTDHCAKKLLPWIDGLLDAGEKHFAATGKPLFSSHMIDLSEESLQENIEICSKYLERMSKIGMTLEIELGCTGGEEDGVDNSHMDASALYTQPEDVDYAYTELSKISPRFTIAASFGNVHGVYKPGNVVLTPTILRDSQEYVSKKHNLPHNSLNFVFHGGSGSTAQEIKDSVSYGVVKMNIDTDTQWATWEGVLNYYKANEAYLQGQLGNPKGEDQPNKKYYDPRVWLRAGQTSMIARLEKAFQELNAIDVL
Multidrug efflux pump subunit AcrB (Escherichia coli (strain K12)), sequence (P31224 whole entry): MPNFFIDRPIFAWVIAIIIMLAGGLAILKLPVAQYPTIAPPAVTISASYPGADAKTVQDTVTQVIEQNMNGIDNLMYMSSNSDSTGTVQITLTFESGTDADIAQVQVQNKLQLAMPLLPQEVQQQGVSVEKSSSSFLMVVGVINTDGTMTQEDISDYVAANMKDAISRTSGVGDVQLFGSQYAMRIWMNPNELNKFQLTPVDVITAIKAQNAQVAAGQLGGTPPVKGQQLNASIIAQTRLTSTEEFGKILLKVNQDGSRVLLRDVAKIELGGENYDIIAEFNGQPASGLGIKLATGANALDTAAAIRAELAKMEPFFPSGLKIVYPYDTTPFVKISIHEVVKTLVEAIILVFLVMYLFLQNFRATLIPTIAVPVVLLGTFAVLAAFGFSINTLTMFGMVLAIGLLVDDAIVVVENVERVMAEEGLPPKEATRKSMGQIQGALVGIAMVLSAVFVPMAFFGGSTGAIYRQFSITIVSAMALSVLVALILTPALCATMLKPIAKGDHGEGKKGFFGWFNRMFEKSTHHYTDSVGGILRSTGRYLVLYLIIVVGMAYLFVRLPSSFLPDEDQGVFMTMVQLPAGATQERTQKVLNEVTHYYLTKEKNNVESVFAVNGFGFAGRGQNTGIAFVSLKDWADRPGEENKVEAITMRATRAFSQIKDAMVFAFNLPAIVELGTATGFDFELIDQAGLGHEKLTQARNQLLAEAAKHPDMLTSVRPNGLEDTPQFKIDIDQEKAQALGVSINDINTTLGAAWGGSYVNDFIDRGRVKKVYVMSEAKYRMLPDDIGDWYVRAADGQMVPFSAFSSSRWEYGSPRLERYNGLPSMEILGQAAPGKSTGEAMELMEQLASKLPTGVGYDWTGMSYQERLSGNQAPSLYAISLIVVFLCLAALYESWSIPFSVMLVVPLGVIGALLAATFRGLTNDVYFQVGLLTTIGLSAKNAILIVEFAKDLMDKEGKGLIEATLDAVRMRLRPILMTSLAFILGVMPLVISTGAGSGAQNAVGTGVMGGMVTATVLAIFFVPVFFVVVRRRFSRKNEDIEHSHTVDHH
UDP-3-O-acyl-N-acetylglucosamine deacetylase (Escherichia coli K-12), sequence (P0A725 whole entry): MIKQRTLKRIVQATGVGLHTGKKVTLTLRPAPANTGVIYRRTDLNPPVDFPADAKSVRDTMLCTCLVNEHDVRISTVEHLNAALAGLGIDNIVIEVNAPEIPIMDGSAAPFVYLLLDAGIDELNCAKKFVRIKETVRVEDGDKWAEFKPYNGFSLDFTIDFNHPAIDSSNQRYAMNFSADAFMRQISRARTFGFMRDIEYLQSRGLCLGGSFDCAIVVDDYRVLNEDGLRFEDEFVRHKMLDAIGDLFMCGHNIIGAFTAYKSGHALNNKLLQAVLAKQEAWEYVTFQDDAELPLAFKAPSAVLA
UDP-N-acetylmuramoyl-L-alanyl-D-glutamate--2,6-diaminopimelate ligase (Escherichia coli (strain K12)), sequence (P22188 whole entry): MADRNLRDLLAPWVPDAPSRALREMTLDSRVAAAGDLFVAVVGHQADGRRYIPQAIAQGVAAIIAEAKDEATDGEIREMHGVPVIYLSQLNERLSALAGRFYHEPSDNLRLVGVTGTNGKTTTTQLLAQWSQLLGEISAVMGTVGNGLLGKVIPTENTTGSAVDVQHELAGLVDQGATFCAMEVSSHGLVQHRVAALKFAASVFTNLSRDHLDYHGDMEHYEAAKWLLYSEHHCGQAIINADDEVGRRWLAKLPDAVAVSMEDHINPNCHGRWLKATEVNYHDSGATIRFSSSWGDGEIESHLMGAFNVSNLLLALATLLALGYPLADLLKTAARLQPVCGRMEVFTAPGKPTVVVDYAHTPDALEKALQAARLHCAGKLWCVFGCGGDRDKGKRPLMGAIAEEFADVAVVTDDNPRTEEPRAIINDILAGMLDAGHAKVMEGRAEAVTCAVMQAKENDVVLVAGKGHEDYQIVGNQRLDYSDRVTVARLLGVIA
Putative reactive intermediate deaminase TdcF (Escherichia coli (strain K12)), sequence (P0AGL2 whole entry): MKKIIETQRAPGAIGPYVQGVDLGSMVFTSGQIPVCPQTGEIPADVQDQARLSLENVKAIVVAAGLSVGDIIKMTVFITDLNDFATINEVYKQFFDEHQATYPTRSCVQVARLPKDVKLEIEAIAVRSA
Multifunctional CCA protein (Escherichia coli (strain K12)), sequence (P06961 whole entry): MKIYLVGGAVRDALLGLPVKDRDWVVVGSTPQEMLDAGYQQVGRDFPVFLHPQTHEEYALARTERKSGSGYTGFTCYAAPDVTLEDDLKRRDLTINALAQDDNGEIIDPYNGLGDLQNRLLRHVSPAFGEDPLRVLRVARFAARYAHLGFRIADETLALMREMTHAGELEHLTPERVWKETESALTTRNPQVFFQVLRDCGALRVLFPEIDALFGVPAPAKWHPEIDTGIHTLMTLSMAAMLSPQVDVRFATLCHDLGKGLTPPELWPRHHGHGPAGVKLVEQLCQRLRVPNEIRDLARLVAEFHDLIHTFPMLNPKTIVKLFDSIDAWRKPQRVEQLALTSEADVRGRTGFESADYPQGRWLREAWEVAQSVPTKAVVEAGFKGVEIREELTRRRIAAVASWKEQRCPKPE
Guanylate kinase (Escherichia coli (strain K12)), sequence (P60546 whole entry): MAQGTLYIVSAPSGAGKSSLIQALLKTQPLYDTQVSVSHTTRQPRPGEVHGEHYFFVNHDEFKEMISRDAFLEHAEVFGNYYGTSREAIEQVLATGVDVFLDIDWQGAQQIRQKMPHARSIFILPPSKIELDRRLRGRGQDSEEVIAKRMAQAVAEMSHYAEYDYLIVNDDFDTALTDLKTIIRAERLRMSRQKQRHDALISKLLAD
Farnesyl diphosphate synthase (Escherichia coli K-12), sequence (P22939 whole entry): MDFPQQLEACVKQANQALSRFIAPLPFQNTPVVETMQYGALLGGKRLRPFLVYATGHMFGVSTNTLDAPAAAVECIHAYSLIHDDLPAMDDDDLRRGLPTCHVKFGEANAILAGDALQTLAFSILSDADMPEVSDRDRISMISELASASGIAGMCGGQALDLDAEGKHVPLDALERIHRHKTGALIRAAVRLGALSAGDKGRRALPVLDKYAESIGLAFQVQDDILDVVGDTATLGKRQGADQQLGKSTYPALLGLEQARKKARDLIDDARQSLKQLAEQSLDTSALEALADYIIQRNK
UDP-N-acetylglucosamine 1-carboxyvinyltransferase (Escherichia coli K-12), sequence (P0A749 whole entry): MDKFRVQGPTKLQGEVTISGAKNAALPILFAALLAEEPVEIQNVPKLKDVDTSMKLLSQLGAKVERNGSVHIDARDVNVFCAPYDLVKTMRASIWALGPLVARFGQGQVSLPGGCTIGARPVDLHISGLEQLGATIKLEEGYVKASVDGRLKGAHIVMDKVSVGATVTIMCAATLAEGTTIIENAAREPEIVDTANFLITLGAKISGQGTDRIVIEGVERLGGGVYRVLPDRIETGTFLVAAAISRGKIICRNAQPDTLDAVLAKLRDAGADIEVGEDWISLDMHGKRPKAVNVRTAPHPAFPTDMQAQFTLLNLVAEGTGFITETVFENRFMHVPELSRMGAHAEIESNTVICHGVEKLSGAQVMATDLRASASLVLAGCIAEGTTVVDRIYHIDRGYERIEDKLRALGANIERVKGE
Uncharacterized protein YdfB (Escherichia coli (strain K12)), sequence (P29009 whole entry): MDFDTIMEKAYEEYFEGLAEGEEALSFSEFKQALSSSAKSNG

Consider `CCn1cc(C(=O)O)c(=O)c2cc(F)c(N3CCNCC3)cc21`, for which the result in assay [1] was inactive.
As for `N[C@@H]1CONC1=O`, the inhibition entry in assay [2], in assay [3], in [4], in assay [5], in assay [6] and in assay [7] was “Active” in each case. Besides, the inhibition entry in assay [8], in assay [9], in assay [10], in assay [11], in [12] and in assay [13] was “Active” throughout. Also, the inhibition result in [14] is “Active”.
Turning to `C[C@@H]1O[C@@H]1P(=O)(O)O`, the inhibition entry in assay [15], in assay [16], in assay [17], in assay [18], in assay [19] and in assay [20] was “Active” in each case. In addition, the inhibition entry in assay [21], in assay [22], in assay [23], in assay [24], in assay [25] and in assay [26] was “Active” each time. For the same compound, the inhibition result in [27], in [28], in assay [29], in assay [30], in [31] and in [32] was “Active” throughout. The inhibition entry in assay [33], in assay [34] and in assay [35] was “Active” throughout.

The values above are taken from ChEMBL document CHEMBL1212733, “Chemical genomics in Escherichia coli identifies an inhibitor of bacterial lipoprotein targeting” (Nat Chem Biol, 2009).
